In US12582697B2, “Antisecretory factor for use in treatment and/or prevention of acute respiratory failure” (LANTMÄNNEN MEDICAL AB, priority 2018, dated 2026):
Where a SMILES comes first, the peptide text is derived from it.

System: adult pigs with experimentally induced ARDS
Test: ARDS model: adverse side effects on cardiovascular parameters
Type: in vivo, pig
Conditions: iv infusion 2 mg/kg, anaesthetized pigs
Description: After ethical approval, 3 months old pigs (body weight 30-35 kg), in all 12, were purchased from a local farm and 2 pigs on 6 occasions brought to the laboratory in the morning on the day for the experiment. […] Upon arrival, the pigs were sedated and thereafter kept fully anaesthetized during the entire experiment until termination late the same day. Tracheostomy was performed and mechanical ventilation performed with a ventilator. This setup is visualized in FIG. 1. Tubes positioned in arteries, veins and via a vein also in the right heart. Equipment was implanted to enable the use of PiCCO instrument (Pulse index, Continuous Cardiac Output=PiCCO) in order to enable exact determination of the total blood volume in the lungs, extra-vascular lung water (EVLW) and cardiac function parameters. Blood pressure transducers were inserted in the pulmonary artery and in a central artery. Arterial blood gasses and additional blood parameters were checked at regular intervals. Oximetry was used to determine hemoglobin oxygen saturation in arterial blood. The core body temperature was kept automatically at desired normal level. EKG was recorded. […]
Treatment with the peptide AF-16 or the vehicle started after the induction of the lung injury (i.e., after the injurious ventilation). […] The PiCCO values were determined once every hour for up to 4 hours after the infusion of the test substance. […]

CC(C)C[C@H](NC(=O)CNC(=O)[C@@H](NC(=O)[C@H](CC(N)=O)NC(=O)[C@H](CC(N)=O)NC(=O)[C@H](CCC(=O)O)NC(=O)[C@@H]1CCCN1C(=O)[C@H](CC(N)=O)NC(=O)[C@H](CO)NC(=O)[C@H](CCCNC(=N)N)NC(=O)[C@@H](NC(=O)[C@H](CCCCN)NC(=O)[C@H](CO)NC(=O)[C@H](Cc1c[nH]cn1)NC(=O)[C@H](CS)NC(=O)[C@@H](N)C(C)C)[C@@H](C)O)C(C)C)C(=O)O [AF-16, VCHSKTRSNPENNVGL] (H-VCHSKTRSNPENNVGL-OH; N-terminus and C-terminus assumed)
adverse side effects on cardiovascular parameters, including blood pressure and heart rates: no adverse side effects could be demonstrated
